Experimental data taken from patent US20090031455A1 (priority 2004, published 2009).

What was measured:
[1] = test system: Phytophthora infestans; format: cell-based; settings: P. infestans; for inhibition of mycelial growth: FIG. 8
[2] = test system: Pythium aphanidermatum; format: cell-based
[3] = test system: Phytophthora infestans; format: cell-based; settings: P. infestans; for inhibition of spore germination: FIG. 7
[4] = test system: Botrytis elliptica; format: cell-based
[5] = test system: Botrytis elliptica; format: cell-based; remark: listed apart in the source
[6] = test system: recombinant FaPINH; assay: recombinant enzyme activity assay with yeast microsomes, GC-MS; settings: for hydroxylation of alternative substrates by PINH: position analogous to α-pinene C10 (C7), FIGS. 3-4
Method: Microsome preparations were evaluated by CO-difference spectrum and were assayed for (−)-α-pinene hydroxylation. The reaction mixture for the recombinant enzyme activity assay, in a final volume of 1 ml, contained 50 mM Tris-HCl pH 7.4, 1 mM EDTA, 0.1 mM DTT, 0.8 units glucose-6-phosphate dehydrogenase, 2 mM glucose 6-phosphate, 5 μM FAD, 5 μM FMN, 1 mM NADPH, and 200 μL of microsomal preparation. 200 nmol (−)-α-pinene (in less than 10 μl, which has no detectable influence on the reaction) were added to the mixture to start the reaction, which was allowed to proceed for 2 hours at 30° C. with gentle shaking. Microsomes isolated from cells harboring the empty vector were employed as controls. The reaction was stopped by chilling the mixture on ice and extracting twice with 1.0-mL portions of pentane:diethyl ether (4:1). The combined extract was passed through a short column of silica gel and anhydrous MgSO4, after which the column was washed with 1.5 mL diethyl ether to remove residual compounds. After concentration under N2, the samples were analyzed by GC-MS. Samples (2 μL) were analyzed by an automated injector on a Hewlett-Packard 5890 series II gas chromatograph equipped with a 30 m×0.25 mm inner diameter fused silica column coated with a 0.25 μm film of HP 5MS (Hewlett-Packard), and a Hewlett-Packard 5972A Mass Selective Detector. GC oven temperature was programmed at an initial temperature of 45° C. for 1 min, with a ramp of 10° C. min-1 to 280° C., and a final time of 10 min. Full spectra were recorded for major reaction products, which were identified by comparing retention times with authentic standards and by comparing spectra with those of the NSB75K library, using the G1033A NIST probability based matching algorithm.

[7] = test system: plant pathogens; format: cell-based; settings: for antimicrobial effect compared with perilla alcohol: FIGS. 7-8; for antimicrobial effect compared with geraniol: data not shown
[8] = test system: PINH expressed in Saccharomyces cerevisiae; assay: in vivo bioconversion assay with intact transgenic yeast cells expressing PINH; settings: 500 μM (−)-α-pinene, 2 h at 30° C.
Method: Transformants were selected on SGI medium, while expression was carried out in YPL medium (induction with 2% galactose) (Pompon et al., 1996). Intact cells were harvested and used for an in vivo assay, by incubation in 50 mM Tris-HCl buffer (pH 7.4) containing 0.1 mM DTT and 1 mM EDTA in the presence of 500 μM (−)-α-pinene. The reaction was allowed to proceed for 2 h at 30° C. with gentle shaking. Controls containing no substrate, and cells containing vector without insert, were also used for in vivo assays. The assays were extracted and analysed using GC-MS as described under Example 3.

C=C(C)[C@@H]1CC=C(CO)CC1 [perilla alcohol]
effectiveness against mycelial growth compared with linalool [1]: more effective than linalool | inhibition of mycelial growth [1]: effectively inhibited | effectiveness against mycelial growth compared with linalool [2]: more effective | inhibition of mycelial growth [2]: effectively inhibited | inhibition of spore germination [3]: effective inhibitors | effectiveness against mycelial growth compared with linalool [4]: slightly more effective than linalool | inhibition of mycelial growth [4]: effectively inhibited | effectiveness against spore germination relative to linalool and myrtenol [5]: about 2 fold | inhibition of spore germination [5]: effective inhibitors

CC1=CC[C@H](C(C)C)C=C1 [α-phellandrene]
hydroxylation of alternative substrates by PINH [6]: hydroxylated at the same position

C=C(C)[C@H]1CC=C(C)CC1 [limonene]
hydroxylation of alternative substrates by PINH [6]: efficiently hydroxylated

C=C(C)[C@@H]1CC=C(C(=O)O)CC1 [perillic acid]
antimicrobial effect compared with perilla alcohol [7]: more effective than perilla alcohol

CC(C)=CCCC(C)=CC=O [citral]
antimicrobial effect compared with geraniol [7]: more effective than geraniol

CC1=CCC2CC1C2(C)C (stereo not drawn) [α-pinene]
substrate hydroxylated at C-10 to form myrtenol ([6]; microsomes from FaPINH expressing yeast, 2 hours at 30° C.): over 50% | conversion into myrtenol by intact yeast cells [8]: efficiently converted

CC1=CC=C(C(C)C)CC1 [α-terpinene]
hydroxylation of alternative substrates by PINH [6]: hydroxylated at the same position

C=C(C)C1CC=C(C=O)CC1 (stereo not shown) [perilla aldehyde]
effectiveness against mycelial growth compared with linalool [1]: more effective than linalool | inhibition of mycelial growth [1]: effectively inhibited | effectiveness against mycelial growth relative to linalool ([1]; more effective than linalool): 4-5 fold | antimicrobial effect compared with perilla alcohol [7]: more effective than perilla alcohol | effectiveness against mycelial growth compared with linalool [2]: more effective | inhibition of mycelial growth [2]: effectively inhibited | inhibition of spore germination [3]: effective inhibitors | effectiveness against spore germination relative to linalool ([3]; FIG. 7A, more effective than linalool): about 10 fold | effectiveness against mycelial growth compared with linalool [4]: slightly more effective than linalool | inhibition of mycelial growth [4]: effectively inhibited | effect on spore germination at the concentration tested [5]: completely blocks germination | inhibition of spore germination [5]: effective inhibitors

CC1(C)C2CC=C(CO)C1C2 (stereo not shown) [myrtenol]
effectiveness against mycelial growth compared with linalool [1]: more effective than linalool | inhibition of mycelial growth [1]: effectively inhibited | effectiveness against mycelial growth compared with linalool [2]: less effective than linalool | inhibition of mycelial growth [2]: effectively inhibited | inhibition of spore germination [3]: effective inhibitors | effectiveness against mycelial growth compared with linalool [4]: slightly more effective than linalool | inhibition of mycelial growth [4]: effectively inhibited | inhibition of spore germination [5]: effective inhibitors

CC1=CCC(=C(C)C)CC1 [α-terpinolene]
hydroxylation of alternative substrates by PINH [6]: hydroxylated at the same position

CC1=CC[C@H]2C[C@@H]1C2(C)C [(−)-α-pinene]
substrate preference between enantiomers ([6]; (−)- versus (+)-α-pinene): preferred to (+)-α-pinene

Cc1ccc(C(C)C)cc1 [p-cymene]
hydroxylation of alternative substrates by PINH [6]: hydroxylated at C7

CC(C)=CCC/C(C)=C/C(=O)O [geranic acid]
antimicrobial effect compared with geraniol [7]: more effective than geraniol
